Where a name gives a salt, the structure may show the parent alone.

This experiment deals with T1, human mAChR M4 (Homo sapiens, UniProt P08173).
T1 sequence (P08173 1-479): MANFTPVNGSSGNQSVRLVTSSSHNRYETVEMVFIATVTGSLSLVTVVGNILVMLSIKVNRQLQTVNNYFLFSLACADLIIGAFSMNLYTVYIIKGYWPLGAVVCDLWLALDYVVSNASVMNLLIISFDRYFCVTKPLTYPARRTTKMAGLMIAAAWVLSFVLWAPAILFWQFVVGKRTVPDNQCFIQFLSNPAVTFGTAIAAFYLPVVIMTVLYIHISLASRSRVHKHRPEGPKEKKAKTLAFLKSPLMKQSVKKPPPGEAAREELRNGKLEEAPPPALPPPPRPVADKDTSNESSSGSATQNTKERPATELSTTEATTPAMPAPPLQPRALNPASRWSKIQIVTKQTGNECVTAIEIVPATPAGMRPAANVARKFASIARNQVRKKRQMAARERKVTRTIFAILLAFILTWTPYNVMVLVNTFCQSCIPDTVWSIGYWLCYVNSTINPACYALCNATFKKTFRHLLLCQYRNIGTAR
In words: mAChR M4 cell-based functional assay (calcium flux), human M4. As to conditions: Table 11; for EC50: Human M4 EC50 (nM), calcium flux, PAM activity with EC20 acetylcholine; for Emax: % ACh maximum at 30 μM.

Turning to `Cc1nnc2sc3c(NCc4ccc(-c5cccn5C)cc4)ncnc3c2c1C` [Compound 341, 3,4-dimethyl-N-[[4-(1-methylpyrrol-2-yl)phenyl]methyl]pyrimido[4′,5′:4,5] thieno[2,3-c]pyridazin-8-amine], the EC50 was found to be 1290 nM and the Emax is 81.2%.
The corresponding values for `Cc1cnn(C)c1-c1ccc(CNc2ncnc3c2sc2nnc(C)c(C)c23)cc1` [Compound 342, N-[[4-(2,4-dimethylpyrazol-3-yl)phenyl]methyl]-3,4-dimethyl-pyrimido[4′,5′:4,5] thieno[2,3-c]pyridazin-8-amine] are 1100 nM and 81.5%.
The matching figures for `CCn1nccc1-c1ccc(CNc2ncnc3c2sc2nnc(C)c(C)c23)cc1` [Compound 343, N-[[4-(2-ethylpyrazol-3-yl)phenyl]methyl]-3,4-dimethyl-pyrimido [4′,5′:4,5]thieno[2,3-c] pyridazin-8-amine]: 850 nM and 72.2%.
The matching figures for `Cc1nnc2sc3c(NCc4ccc(-c5ccnn5C)cc4F)ncnc3c2c1C` [Compound 344, N-[[2-fluoro-4-(2-methylpyrazol-3-yl)phenyl]methyl]-3,4-dimethyl-pyrimido[4′,5′:4,5]thieno [2,3-c]pyridazin-8-amine]: 824 nM and 70.9%.
As to `Cc1nnc2sc3c(NCc4ccc(-n5cccn5)cc4)ncnc3c2c1C` [Compound 345, 3,4-dimethyl-N-[(4-pyrazol-1-ylphenyl)methyl] pyrimido[4′,5′:4,5]thieno [2,3-c]pyridazin-8-amine], the EC50 worked out at 830 nM and the Emax is 87.1%.
The corresponding values for `Cc1nnc2sc3c(N4CCC(Oc5ccnc(Cl)c5)CC4)ncnc3c2c1C` [Compound 346, 8-[4-[(2-chloro-4-pyridyl)oxy]-1-piperidyl]-3,4-dimethyl-pyrimido [4′,5′:4,5]thieno[2,3-c] pyridazine] are 749 nM and 56.8%.
The matching figures for `Cc1nnc2sc3c(N4CCC(COc5ccnc(Cl)c5)C4)ncnc3c2c1C` (stereo not shown) [Compound 347, 8-[3-[(2-chloro-4-pyridyl)oxymethyl]pyrrolidin-1-yl]-3,4-dimethyl-pyrimido[4′,5′:4,5] thieno[2,3-c]pyridazine dihydrochloride]: 362 nM and 48.5%.
The corresponding values for `Cc1nnc2sc3c(N4CC(COc5ccnc(Cl)c5)C4)ncnc3c2c1C` [Compound 348, 8-[3-[(2-choro-4-pyridyl)oxymethyl]azetidin-1-yl]-3,4-dimethyl-pyrimido [4′,5′:4,5]thieno[2,3-c] pyridazine dihydrochloride] are 1710 nM and 65.7%.
Consider `Cc1nnc2sc3c(N4CC(Oc5ccnc(Cl)c5)C4)ncnc3c2c1C` [Compound 349, 8-[3-[(2-chloro-4-pyridyl)oxy]azetidin-1-yl]-3,4-dimethyl-pyrimido[4′,5′:4,5] thieno[2,3-c]pyridazine dihydrochloride], for which the EC50 came out at 210 nM and the Emax was 81.2%.
For `Cc1nnc2sc3c(N4CC(Oc5cnccn5)C4)ncnc3c2c1C` [Compound 350, 3,4-dimethyl-8-(3-pyrazin-2-yloxyazetidin-1-yl) pyrimido[4′,5′:4,5]thieno [2,3-c]pyridazine dihydrochloride], the EC50 was found to be 404 nM and the Emax was 78.1%.
As to `Cc1cc(C)c(OC2CN(c3ncnc4c3sc3nnc(C)c(C)c34)C2)cn1` [Compound 351, 8-[3-[(4,6-dimethyl-3-pyridyl)oxy]azetidin-1-yl]-3,4-dimethyl-pyrimido[4′,5′:4,5]thieno [2,3-c]pyridazine dihydrochloride], the EC50 came to 444 nM and the Emax was 62.1%.
As to `[2H]C([2H])([2H])C(O)(c1ccc(CNc2ncnc3c2sc2nnc(C)c(C)c23)cc1)C([2H])([2H])[2H]` [Compound 352, 1,1,1,3,3,3-hexadeuterio-2-[4-[[(3,4-dimethylpyrimido [4′,5′:4,5]thieno[2,3-c]pyridazin-8-yl)amino]methyl]phenyl]propan-2-ol], the Emax came to 103%.
On to `Cc1nnc2sc3c(N4CC[C@@H](C(C)(C)O)C4)ncnc3c2c1C` [Compound 353, 2-[(3R)-1-(3,4-dimethylpyrimido [4′,5′:4,5]thieno[2,3-c]pyridazin-8-yl)pyrrolidin-3-yl]propan-2-ol], for which the EC50 came to 321 nM and the maximum response (Emax) came out at 48.8%.
The matching figures for `Cc1nnc2sc3c(N4CC[C@H](C(C)(C)O)C4)ncnc3c2c1C` [Compound 354, 2-[(3S)-1-(3,4-dimethylpyrimido[4′,5′:4,5]thieno[2,3-c]pyridazin-8-yl)pyrrolidin-3-yl]propan-2-ol]: 362 nM and 53%.
The matching figures for `Cc1nnc2sc3c(N4CC(Oc5ccc(C#N)nc5)C4)ncnc3c2c1C` [Compound 355, 5-[1-(3,4-dimethylpyrimido[4′,5′:4,5]thieno[2,3-c]pyridazin-8-yl)azetidin-3-yl]oxypyridine-2-carbonitrile dihydrochloride]: 1310 nM and 49.2%.
With `Cc1nnc2sc3c(N4CC(Oc5cccnc5)C4)ncnc3c2c1C` [Compound 356, 3,4-dimethyl-8-[3-(3-pyridyloxy)azetidin-1-yl]pyrimido[4′,5′:4,5]thieno [2,3-c]pyridazine dihydrochloride], the EC50 came to 1170 nM and the Emax is 32.8%.
Consider `Cc1nnc2sc3c(N4CC(Oc5cnn(C)c5)C4)ncnc3c2c1C` [Compound 357, 3,4-dimethyl-8-[3-(1-methylpyrazol-4-yl)oxyazetidin-1-yl]pyrimido [4′,5′:4,5]thieno[2,3-c] pyridazine dihydrochloride], for which the EC50 turned out to be 1400 nM and the Emax was 41.3%.
Consider `Cc1cc(O[C@H]2CN(c3ncnc4c3sc3nnc(C)c(C)c34)C[C@@H]2C)ccn1` [Compound 358, 3,4-dimethyl-8-[(3S,4R)-3-methyl-4-[(2-methyl-4-pyridyl)oxy]pyrrolidin-1-yl]pyrimido[4′,5′:4,5] thieno[2,3-c] pyridazine dihydrochloride], for which the EC50 came to 276 nM and the Emax was 76%.
`Cc1nnc2sc3c(N4CC[C@H](Oc5ccccn5)C4)ncnc3c2c1C` [Compound 359, 3,4-dimethyl-8-[(3S)-3-(2-pyridyloxy)pyrrolidin-1-yl]pyrimido[4′,5′:4,5]thieno[2,3-c]pyridazine dihydrochloride]: the EC50 was 488 nM and the Emax was 31.8%.
The corresponding values for `Cc1nnc2sc3c(N4CC[C@H](Oc5ccc(C(F)(F)F)cn5)C4)ncnc3c2c1C` [Compound 360, 3,4-dimethyl-8-[(3S)-3-[[5-(trifluoromethyl)-2-pyridyl]oxy]pyrrolidin-1-yl] pyrimido[4′,5′:4,5]thieno [2,3-c]pyridazine dihydrochloride] are 333 nM and 56%.
Turning to `Cc1nnc2sc3c(N4CC[C@H](Oc5cnccn5)C4)ncnc3c2c1C` [Compound 361, 3,4-dimethyl-8-[(3S)-3-pyrazin-2-yloxypyrrolidin-1-yl]pyrimido[4′,5′:4,5] thieno[2,3-c]pyridazine dihydrochloride], the EC50 was 1470 nM and the Emax is 53.9%.
The corresponding values for `Cc1nnc2sc3c(N4CC[C@H](Oc5ccc(C(F)(F)F)nc5)C4)ncnc3c2c1C` [Compound 362, 3,4-dimethyl-8-[(3S)-3-[[6-(trifluoromethyl)-3-pyridyl]oxy]pyrrolidin-1-yl] pyrimido[4′,5′:4,5]thieno [2,3-c]pyridazine dihydrochloride] are 519 nM and 75.7%.
The corresponding values for `Cc1nnc2sc3c(N4CC[C@H](Oc5ccc(C#N)cc5)C4)ncnc3c2c1C` [Compound 363, 4-[(3S)-1-(3,4-dimethylpyrimido[4′,5′:4,5]thieno[2,3-c]pyridazin-8-yl)pyrrolidin-3-yl] oxybenzonitrile dihydrochloride] are 298 nM and 64.8%.
The matching figures for `Cc1ccc(O[C@H]2CCN(c3ncnc4c3sc3nnc(C)c(C)c34)C2)cn1` [Compound 364, 3,4-dimethyl-8-[(3S)-3-[(6-methyl-3-pyridyl)oxy]pyrrolidin-1-yl]pyrimido [4′,5′:4,5]thieno[2,3-c] pyridazine dihydrochloride]: 423 nM and 50.7%.
In the case of `Cc1cc(O[C@H]2C[C@@H](C)N(c3ncnc4c3sc3nnc(C)c(C)c34)C2)ccn1` [Compound 365, 3,4-dimethyl-8-[(2R,4S)-2-methyl-4-[(2-methyl-4-pyridyl)oxy]pyrrolidin-1-yl]pyrimido [4′,5′:4,5]thieno[2,3-c] pyridazine dihydrochloride], the EC50 was found to be 551 nM and the Emax stood at 65.2%.
The matching figures for `Cc1nnc2sc3c(N4CCC(Oc5ccncc5)(C(F)(F)F)C4)ncnc3c2c1C` (stereo not shown) [Compound 366, 3,4-dimethyl-8-[3-(4-pyridyloxy)-3-(trifluoromethyl)pyrrolidin-1-yl]pyrimido[4′,5′:4,5]thieno[2,3-c]pyridazine dihydrochloride]: 1360 nM and 77.7%.
Turning to `COC(C)(C)c1ccc(CNc2ncnc3c2sc2nnc(C)c(C)c23)cc1` [Compound 367, N-[[4-(1-methoxy-1-methyl-ethyl)phenyl]methyl]-3,4-dimethyl-pyrimido[4′,5′:4,5] thieno[2,3-c]pyridazin-8-amine], the Emax was 100%.

These data come from patent publication US10239887B2, “Positive allosteric modulators of the muscarinic acetylcholine receptor M4” (Vanderbilt University, priority 2016, dated 2019).
